# Laboratory results published in US10538516B2, “Oxadiazole derivative and pharmaceutical containing same” (National Center for Geriatrics and Gerontology, priority 2015, dated 2020).
# Like-named read-outs stand apart in the source and are kept apart here.
# Target: T1, GAβ-dependent amyloid fibril formation (Human Aβ1-40 + GM1-containing liposome) (Homo sapiens, UniProt P05067)
# T1 construct: Human Aβ1-40 (cat. #4307-v, prepared by Peptide Institute); purchased Peptide Institute 4307-v
# Assay: Thioflavin T (ThT) assay of GAβ-dependent amyloid fibril formation (Aβ1-40 with GM1-containing liposome)
# Format: biochemical
# Method in brief: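 Human Aβ1-40 (75 μM stock) pre-incubated 10 min at room temperature with compound (75 or 15 μM solution), then GM1-containing cholesterol/sphingomyelin liposome added and incubated 37° C, 18 hours. Fibrils quantified by ThT fluorescence (ex 430/em 490 nm, pH 8.5 glycine buffer); inhibition as ratio to compound-free control.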
# [1] = inhibition rate against amyloid fibril formation, final concentration of the compound 25 μM, read-out: Inhibitory activity ABC evaluation
# [2] = @25 μM, read-out: ThT Inhibitory activity (% inhibition)
# T1 sequence (P05067 672-711 limits assumed): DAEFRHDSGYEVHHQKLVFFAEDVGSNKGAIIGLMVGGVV
SMILES,inhibition at 25 µM [1] [%],inhibition at 25 µM [2] [%]
"O=C(N[C@@H](CO)c1nc(-c2ccc(CF)cc2)no1)c1ccc(F)cc1 [Compound 161, 4-fluoro-N-[(1S)-1-{3-[4-(fluoromethyl)phenyl]-1,2,4-oxadiazol-5-yl}-2-hydroxyethyl] benzamide]",40 to 80,–
"O=C(N[C@@H](CO)c1nc(-c2ccc(C(F)(F)F)s2)no1)c1ccc(F)cc1 [Compound 210, 4-fluoro-N-[(1S)-2-hydroxy-1-{3-[5-(trifluoromethyl)thiophen-2-yl]-1,2,4-oxadiazol-5-yl}ethyl] benzamide]",> 80,–
"O=C(N[C@@H](CO)c1nc(-c2csc3ccccc23)no1)c1ccc(F)cc1 [Compound 230, N-[(1S)-1-[3-(1-benzothiophen-3-yl)-1,2,4-oxadiazol-5-yl]-2-hydroxyethyl]-4-fluorobenzamide]",40 to 80,73
"O=C(N[C@@H](CO)c1nc(-c2ncccn2)no1)c1ccc(F)cc1 [Compound 246, 4-fluoro-N-[(1S)-2-hydroxy-1-[3-(pyrimidin-2-yl)-1,2,4-oxadiazol-5-yl]ethyl]benzamide]",40 to 80,–
"O=C(NC1(c2nc(-c3ccc(OC(F)(F)F)cc3)no2)CCCC1)c1ccc(F)cc1 [Compound 30, 4-fluoro-N-(1-[3-{4-(trifluoromethoxy)phenyl}-1,2,4-oxadiazol-5-yl]cyclopentyl) benzamide]",< 40,–
"O=C(/C=C/c1cc(Cl)cc(Cl)c1)NC(CO)c1nc(-c2ccc(C(F)(F)F)cc2)no1 (stereo not drawn) [Compound 191, (2E)-3-(3,5-dichlorophenyl)-N-(2-hydroxy-1-{3-[4-(trifluoromethyl)phenyl]-1,2,4-oxadiazol-5-yl}ethyl)prop-2-enamide]",40 to 80,73
"O=C(N[C@@H](CO)c1nc(-c2cccc(C(F)(F)F)c2)no1)c1cc2ccccc2[nH]1 [Compound 223, N-[(1S)-2-hydroxy-1-{3-[3-(trifluoromethyl)phenyl]-1,2,4-oxadiazol-5-yl}ethyl]-1H-indole-2-carboxamide]",40 to 80,–
"O=C(N[C@@H](CO)c1nnc(-c2ccc(OC(F)(F)F)cc2)o1)c1ccc(F)cc1 [Compound 112, (S)-4-fluoro-N-(2-hydroxy-1-(5-(4-(tri-fluoromethoxy)phenyl)-1,3,4-oxadiazol-2-yl)ethyl)benzamide]",40 to 80,–
"O=C(N[C@H](CO)c1nc(-c2ccc(C(F)(F)F)cc2)no1)c1ccc(F)cc1 [Compound 212, 4-fluoro-N-[(1R)-2-hydroxy-1-{3-[4-(trifluoromethyl)phenyl]-1,2,4-oxadiazol-5-yl}ethyl]benzamide]",40 to 80,–
"O=C(NC(CO)c1nc(-c2ccc(C(F)(F)F)cc2)no1)c1n[nH]c2ccccc12 (stereo not drawn) [Compound 186, N-(2-hydroxy-1-{3-[4-(trifluoromethyl)phenyl]-1,2,4-oxadiazol-5-yl}ethyl)-1H-indazole-3-carboxamide]",40 to 80,–
"CNCC(NC(=O)c1ccc(Cl)cc1)c1nnc(-c2ccc(OC(F)(F)F)cc2)o1 (stereo not drawn) [Compound 118, 4-chloro-N-(2-(methylamino)-1-(5-(4-(tri-fluoromethoxy)phenyl)-1,3,4-oxadiazol-2-yl)ethyl)benzamide]",40 to 80,72
"O=C(N[C@@H](CO)c1nc(-c2c[nH]c3ncccc23)no1)c1ccc(F)cc1 [Compound 229, 4-fluoro-N-[(1S)-2-hydroxy-1-(3-{1H-pyrrolo[2,3-b]pyridin-3-yl}-1,2,4-oxadiazol-5-yl)ethyl]benzamide]",40 to 80,71
"O=C(N[C@@H](CO)c1nc(-c2c[nH]c3ccc(Cl)cc23)no1)c1ccc(F)cc1 [Compound 233, N-[(1S)-1-[3-(5-chloro-1H-indol-3-yl)-1,2,4-oxadiazol-5-yl]-2-hydroxyethyl]-4-fluorobenzamide]",40 to 80,–
"O=C(N[C@@H](CO)c1nc(-c2ccc(F)cc2)no1)c1ccc(F)cc1 [Compound 172, 4-fluoro-N-[(1S)-1-[3-(4-fluorophenyl)-1,2,4-oxadiazol-5-yl]-2-hydroxyethyl] benzamide]",> 80,91
"O=C(N[C@@H](CO)c1nc(-c2ccc(OC(F)(F)F)cc2)no1)c1ccc(F)cc1 [Compound 69, (S)-4-fluoro-N-(2-hydroxy-1-[3-{4-(trifluoro-methoxy)phenyl}-1,2,4-oxadiazol-5-yl]ethyl) benzamide]",> 80,87
"C=C(NC(=O)c1ccc(Cl)cc1)c1nnc(-c2ccc(OC(F)(F)F)cc2)o1 [Compound 115, 4-chloro-N-(1-(5-(4-(trifluoromethoxy)phenyl)-1,3,4-oxadiazol-2-yl)vinyl)benzamide]",< 40,–
"O=C(N[C@@H](CO)c1nc(-c2c[nH]c3cc(F)ccc23)no1)c1ccc(F)cc1 [Compound 260, 4-fluoro-N-[(1S)-1-[3-(6-fluoro-1H-indol-3-yl)-1,2,4-oxadiazol-5-yl]-2-hydroxyethyl] benzamide]",40 to 80,–
"O=C(NCC(CO)c1nc(-c2ccc(C(F)(F)F)cc2)no1)c1ccc(F)cc1 (stereo not drawn) [Compound 151, 4-fluoro-N-(3-hydroxy-2-{3-[4-(trifluoro-methyl)phenyl]-1,2,4-oxadiazol-5-yl}propyl)benzamide]",40 to 80,–
"COCCCNC(=O)c1ccc(-c2noc([C@H](CO)NC(=O)c3ccc(F)cc3)n2)cc1 [Compound 147, 4-{5-[(1S)-1-[(4-fluorophenyl) formamido]-2-hydroxyethyl]-1,2,4-oxadiazol-3-yl}-N-(3-methoxypropyl) benzamide]",40 to 80,53
"O=C(N[C@@H](CO)c1nc(-c2ccc(OC(F)(F)F)cc2)no1)c1ccc(O)c(Cl)c1 [Compound 98, (S)-3-chloro-4-hydroxy-N-(2-hydroxy-1-[3-{4-(trifluoromethoxy)phenyl}-1,2,4-oxadiazol-5-yl]ethyl)benzamide]",< 40,–

# The remaining lines, values ahead:
inhibition at 25 µM [1] [%],inhibition at 25 µM [2] [%],SMILES
40 to 80,–,"O=C1CC(c2nc(-c3ccc(OC(F)F)cc3)no2)CN1c1ccc(Cl)cn1 (stereo not drawn) [Compound 62, 1-(5-chloropyridin-2-yl)-4-{3-[4-(difluoromethoxy)phenyl]-1,2,4-oxadiazol-5-yl}pyrrolidin-2-one]"
40 to 80,–,"O=C(N[C@@H](CO)c1nc(-c2ccc(OCCN3CCOCC3)cc2)no1)c1ccccc1 [Compound 158, N-[(1S)-2-hydroxy-1-(3-{4-[2-(morpholin-4-yl)ethoxy]phenyl}-1,2,4-oxadiazol-5-yl)ethyl] benzamide]"
> 80,87,"OC(Cc1c[nH]c2ccccc12)c1nc(-c2ccc(OC(F)(F)F)cc2)no1 (stereo not drawn) [Compound 101, 2-(1H-indol-3-yl)-1-{3-[4-(trifluoromethoxy)phenyl]-1,2,4-oxadiazol-5-yl}ethan-1-ol]"
< 40,–,"COc1ccc(-c2noc(C(C)(C)N(C)C(=O)c3ccc(Cl)cc3)n2)cc1 [Compound 22, 4-chloro-N-[2-{3-(4-methoxyphenyl)-1,2,4-oxadiazol-5-yl}propan-2-yl]-N-methyl-benzamide]"
40 to 80,–,"O=C(c1ccc(Cl)cc1)N(CCO)[C@@H](CO)c1nc(-c2ccc(OC(F)(F)F)cc2)no1 [Compound 96, (S)-4-chloro-N-(2-hydroxy-1-{3-[4-(trifluoromethoxy)phenyl]-1,2,4-oxadiazol-5-yl}ethyl)-N-(2-hydroxyethyl)benzamide]"
40 to 80,–,"O=C1CC(c2nc(-c3ccc(OC(F)(F)F)cc3)no2)CN1c1ccc(Cl)cc1F (stereo not drawn) [Compound 28, 1-(4-chloro-2-fluorophenyl)-4-[3-{4-(trifluoromethoxy)phenyl}-1,2,4-oxadiazol-5-yl]pyrrolidin-2-one]"
< 40,–,"O=C(NC1(c2nc(-c3ccc(OC(F)(F)F)cc3)no2)CCCC1)c1ccc(Cl)cc1 [Compound 29, 4-chloro-N-(1-[3-{4-(trifluoromethoxy)phenyl}-1,2,4-oxadiazol-5-yl]cyclopentyl) benzamide]"
< 40,–,"O=C1CC(c2nnn(-c3ccc(OC(F)(F)F)cc3)n2)CN1c1ccc(Cl)cc1 (stereo not drawn) [Compound 122, 1-(4-chlorophenyl)-4-{2-[4-(trifluoromethoxy)phenyl]-2H-tetrazol-5-yl}pyrrolidin-2-one]"
40 to 80,–,"O=C1CC(c2nc(-c3ccccc3)no2)CN1c1ccc(Cl)cc1 (stereo not drawn) [Compound 43, 1-(4-chlorophenyl)-4-(3-phenyl-1,2,4-oxadiazol-5-yl) pyrrolidin-2-one]"
< 40,–,"O=C(c1c[nH]c2ccccc12)N1C[C@H](O)C[C@H]1c1nc(-c2ccc(OC(F)(F)F)cc2)no1 [Compound 47, ((2S,4R)-4-hydroxy-2-[3-{4-(trifluoro-methoxy)phenyl}-1,2,4-oxadiazol-5-yl]pyrrolidin-1-yl)(1H-indol-3-yl)methanone]"
40 to 80,–,"O=C1CC(c2nc(-c3ccc(OC(F)(F)F)cc3)ns2)CN1c1ccc(Cl)cc1 (stereo not drawn) [Compound 121, 1-(4-chlorophenyl)-4-{3-[4-(trifluoromethoxy)phenyl]-1,2,4-thiadiazol-5-yl}pyrrolidin-2-one]"
40 to 80,–,"O=C(N[C@@H](CO)c1nc(-c2ccc(CF)cc2)no1)c1ccccc1 [Compound 162, N-[(1S)-1-{3-[4-(fluoromethyl)phenyl]-1,2,4-oxadiazol-5-yl}-2-hydroxyethyl] benzamide]"
> 80,–,"O=C(N[C@@H](CO)c1nc(-c2cccc(C(F)(F)F)c2)no1)c1ccc(N2CCCC2)cc1 [Compound 221, N-[(1S)-2-hydroxy-1-{3-[3-(trifluoromethyl)phenyl]-1,2,4-oxadiazol-5-yl}ethyl]-4-(pyrrolidin-1-yl) benzamide]"
< 40,–,"COc1ccc(-c2noc(CCC(=O)Nc3cccc(Cl)c3)n2)cc1 [Compound 8, N-(3-chlorophenyl)-3-{3-(4-methoxyphenyl)-1,2,4-oxadiazol-5-yl}propanamide]"
